Where two headings read alike, the source gives them in different places.
What was measured:
[1] = rat, in vivo, 120 min
[2] = Percent complex determination, yttrium complexes (Sephadex C-25 cation exchange); format: physicochemical; conditions: Y
Description: The yttrium and/or samarium complexes of several of the compounds were prepared and percent complexation determined as follows:
Complexes were made by preparing a 0.0003M yttrium solution in water. (YCl3 ·6H2 O, 303.26 g/mole; Y(OAc)3, 12.1% H2 0). Radioactive YCl3 (Oakridge National Laboratories) was added to give the desired number of counts. Ten μl of ligand solution (at 0.03M) were added to 990 μl of the Y solution, giving a ligand-to-metal ratio of 1:1. (Ten times the amount of ligand solution was used for a 10:1 ligand to metal ratio.) The pH was then adjusted to 7.4 using microliter quantities of hydrochloric acid or sodium hydroxide. The solution was then tested for the amount of complexed yttrium using the cation exchange method given below.
(§1) A disposable 10 ml plastic (Biorad) column was filled with 1 to 2 ml of water-swelled Sephadex™ C-25 cation exchange resin. The water was pressure eluted to the top of the resin. Fifteen μl of the complex (or more if counts were low) were added to the top of the resin. This was followed by 2 ml of 4:1 (V:V) isotonic saline:conc. ammonium hydroxide solution as an eluent which was allowed to drip into a counting tube. This was also pressure eluted to the top of the resin. An additional 2 ml of the eluent were added and the column pressure eluted to remove all liquid. The dried resin was then placed in a third counting tube and the three tubes counted on a NaI well counter using a Canberra multichannel analyzer linked to a computer. The percent complex was determined by dividing the number of counts in the two elutions by the total counts in the elutions plus the column, all times 100. By this method, uncomplexed yttrium was retained on the column.

[3] = rat, in vivo, iv, 120 min
[4] = Lability of yttrium complexes on addition of excess metal; format: physicochemical; conditions: Y
Description: as §1
The 1:1 complex of yttrium with 1-(p-aminobenzyl)diethylenetriaminepentaacetic acid (ABDTPA), a well known bifunctional chelant used in the literature, and with the ligand of Example 2 (Now Ex. XVI) and Example 12 (now Ex. XVII) were prepared using the techniques described earlier. Several 100 microliter aliquots were then withdrawn into separate centrifuge tubes. Excess metal was added such that the total volume change is minimized and the time noted. One-half hour after metal addition, the percent complex was determined by the Sephadex™ C-25 method and this was compared to the original amount of complex. The percent complex versus added metal gives an indication as to the lability of the ligand-metal complex. Results are given below and are compared to the EDTA-yttrium complex.

[5] = Percent complex determination, samarium complexes (Sephadex C-25 cation exchange); format: physicochemical; conditions: Sm
Description: as §1, with “100.” for “100. By this method, uncomplexed yttrium was retained on the column.”
Samarium complexes were formed as described previously for yttrium complexes except that 0.0003M samarium was prepared by dissolution of Sm2 03 (348.7 g mole) in 0.1M hydrochloric acid. […] Percent complex determination was made in the same manner as for the yttrium complex.

[6] = Inertness of antibody-complex conjugates challenged with excess DTPA; format: physicochemical; conditions: 1000 fold molar excess of DTPA, pH 7.4, one hour
Description: The purified antibody-complexes were added to HEPES buffer (N-2-hydroxyethylpiperazine-N'-2-ethanesulfonic acid) at pH 7.4 and treated with an appropriate amount of 0.1M DTPA solution (pH 7.4) to ensure a 1000 fold molar excess of DTPA over complex attached to antibody. After one hour an aliquot was removed and the antibody-complex conjugates were separated from low molecular weight substances using gel-filtration.

[7] = In vivo screening of bifunctional chelates: biodistribution, percent injected dose in liver; conditions: rat, i.v. tail vein, 2 hours
[8] = cited from earlier work
Biodistribution in rats = conditions: 2 hours
[9] = test system: osteosarcoma in the right proximal humerus; assay: Treatment of a dog with osteosarcoma; format: in vivo; conditions: Sm-153, 300 times molar excess ligand, I.V. 0.95 mCi/Kg, one week after injection
Description: A dog was presented with an osteosarcoma in the right proximal humerus and walked with significant lameness. A complex was prepared using the ligand of Example 10 with a Sm-153 solution. The concentration of Sm was 3×10^-4 M and the ligand was used with a 300 times molar excess. The specific activity of the Sm-153 was 30 mCi/ml. The dog was given an I.V. injection of this complex containing 0.95 mCi of Sm-153 per Kg body weight of the dog.

[10] = Biodistribution in rabbit; format: in vivo; conditions: Y-90, 10 times molar excess ligand
Description: Muscle was calculated using 46% of body weight.
A rabbit was injected in the same manner as the rats with a formulation having Y-90 with Y at 3×10^-4 M and the ligand of Example 10 at 10 times molar excess.

[11] = radionuclide; cited from earlier work
[12] = Metal/Ligand Molar Ratio 10, one-half hour after metal addition
[13] = Metal/Ligand Molar Ratio 100, one-half hour after metal addition
[14] = Metal/Ligand Molar Ratio 500, one-half hour after metal addition
[15] = Metal/Ligand Molar Ratio 250, one-half hour after metal addition
[16] = Ho-166, 300 times molar excess ligand
[17] = Sm-153, 10 times molar excess ligand
[18] = Sm-153, 300 times molar excess ligand

In the case of `CC(=O)Nc1ccc(O)c(C(NCCN(CC(=O)O)CC(=O)O)C(=O)O)c1` (stereo not shown) [Example 1, 2-[(2-{[bis(carboxymethyl)]amino}ethyl)amino]-2-(5-acetamido-2-hydroxyphenyl)ethanoic acid], the “biodistribution, blood (% dose)” value [1] is reported as 0.57%, the “biodistribution, bone (% dose)” value [1] is reported as 56.1% and the “biodistribution, liver (% dose)” value [1] is reported as 0.87%. The “biodistribution, muscle (% dose)” value [1] was 0.78%, the “biodistribution, spleen (% dose)” value [1] was 0.03% and the “% Complex” value ([2]; ligand/metal 10:1) was 98%. The “% Injected Dose in Liver” value [3] was 0.87%.

In the case of `CC(=O)Nc1ccc(OCC(=O)O)c(C(C(=O)O)N(CCN(CC(=O)O)CC(=O)O)CC(=O)O)c1` (stereo not shown) [Example 2, 2-[(2-{[bis(carboxymethyl)]amino}ethyl) (carboxymethyl)amino]-2-[5-acetamido-2-(carboxymethyloxy)phenyl]ethanoic acid], the “% Complex” value ([2]; ligand/metal 10:1) is reported as over 99%, the “% Complex” value ([4]; Metal/Ligand Molar Ratio 1) is reported as 99% and the “% Complex” value [4, 12] is reported as 94%. For the same molecule, the “% Complex” value [4, 13] was 84%, the “% Complex” value [4, 14] was 75% and the “% Complex” value ([5]; ligand/metal 10:1) was over 99%. The “% Injected Dose in Liver” value [3] was 0.22%.

In the case of `Nc1ccc(CC(CN(CCN(CC(=O)O)CC(=O)O)CC(=O)O)N(CC(=O)O)CC(=O)O)cc1` (stereo not shown) [ABDTPA, 1-(p-aminobenzyl)diethylenetriaminepentaacetic acid], the “% Complex” value ([4]; Metal/Ligand Molar Ratio 1) is reported as 97%, the “% Complex” value [4, 12] is reported as 95% and the “% Complex” value [4, 13] is reported as 92%. The “% Complex” value [4, 15] was 87%, the “% Complex” value [4, 14] was 70% and the “yttrium lost from antibody-complex conjugate” value [6] was “over 98%”.

For `O=C(O)CN(CC(=O)O)CC(=O)O` [NTA, nitrilotri-acetic acid, reference compound], the “% Injected Dose in Liver” value ([7]; Sm, ligand/metal about 300:1) is listed as 8.6% and the “concentrations of radioactivity in organs” value ([8]; mouse, in vivo) is listed as “high concentrations of radioactivity were observed in the liver, spleen, kidney, lung and bone”.

In the case of `CC(=O)Nc1cc(C(C(=O)O)N(CC(=O)O)CC(=O)O)c(O)c(C(C(=O)O)N(CC(=O)O)CC(=O)O)c1` (stereo not shown) [Example 10, 2,6-BIS{[BIS(CARBOXYMETHYL)AMINO](CARBOXY)METHYL}-4-(ACETAMIDO) PHENOL], the “% Injected Dose in Liver” value ([7]; Ho, (300)) is reported as 0.26%, the “% Injected Dose in Liver” value ([7]; Sm, (300)) is reported as 0.12% and the “% Injected Dose in Liver” value ([7]; Sm, ligand/metal 10:1) is reported as 1.3%. For the same molecule, the “% Injected Dose in Liver” value ([7]; Y, ligand/metal 10:1) was 0.39%, the “biodistribution, blood (% dose)” value (Biodistribution in rats; [16]) was 0.09% and the “biodistribution, bone (% dose)” value (Biodistribution in rats; [16]) was 52.9%. For the same molecule, the “biodistribution, liver (% dose)” value (Biodistribution in rats; [16]) was 0.26%, the “biodistribution, muscle (% dose)” value (Biodistribution in rats; [16]) was 1.1% and the “biodistribution, spleen (% dose)” value (Biodistribution in rats; [16]) was 0.007%. For the same molecule, the “biodistribution, blood (% dose)” value (Biodistribution in rats; [17]) was 0.18%, the “biodistribution, bone (% dose)” value (Biodistribution in rats; [17]) was 48.5% and the “biodistribution, liver (% dose)” value (Biodistribution in rats; [17]) was 1.3%. The “biodistribution, muscle (% dose)” value (Biodistribution in rats; [17]) was 0.73%, the “biodistribution, spleen (% dose)” value (Biodistribution in rats; [17]) was 0.01% and the “biodistribution, blood (% dose)” value (Biodistribution in rats; [18]) was 0.05%. For the same molecule, the “biodistribution, bone (% dose)” value (Biodistribution in rats; [18]) was 52.7%, the “biodistribution, liver (% dose)” value (Biodistribution in rats; [18]) was 0.12% and the “biodistribution, muscle (% dose)” value (Biodistribution in rats; [18]) was 0.23%. The “biodistribution, spleen (% dose)” value (Biodistribution in rats; [18]) was 0.005%, the “dog's gait” value [9] was “noticeably improved” and the “% Complex” value ([2]; ligand/metal 10:1) was 98%. For the same molecule, the “biodistribution, blood (% dose)” value [10] was 0.68%, the “biodistribution, bone (% dose)” value [10] was 59% and the “biodistribution, liver (% dose)” value [10] was 1.1%. For the same molecule, the “biodistribution, muscle (% dose)” value [10] was 1.5% and the “biodistribution, spleen (% dose)” value [10] was 0.19%.

In the case of `Nc1cc(CN(CCN(CC(=O)O)CC(=O)O)CC(=O)O)c(O)c(CN(CCN(CC(=O)O)CC(=O)O)CC(=O)O)c1` [Example 12], the “% Complex” value ([2]; ligand/metal 10:1) is reported as 99%, the “% Complex” value ([2]; ligand/metal ratio about 1:1) is reported as 98% and the “% Complex” value ([4]; Metal/Ligand Molar Ratio 1) is reported as 95%. For the same molecule, the “% Complex” value [4, 12] was 93%, the “% Complex” value [4, 13] was 90% and the “% Complex” value [4, 15] was 90%. The “% Complex” value [4, 14] was 79%, the “% Complex” value ([5]; ligand/metal 10:1) was 98% and the “% Complex” value ([5]; ligand/metal ratio about 1:1) was 98%. For the same molecule, the “yttrium lost from antibody-complex conjugate” value [6] was “approximately 39%”.

In the case of `O=C(O)CN(CCN(CC(=O)O)CC(=O)O)CC(=O)O` [EDTA, ethylenediaminetetraacetic acid], the “% Injected Dose in Liver” value ([7]; Sm, ligand/metal 5:1) is listed as 8.4%, the “% Injected Dose in Liver” value ([7]; Sm, ligand/metal about 300:1) is listed as 4.4% and the “concentrations of radioactivity in organs” value ([8]; Sc-46, Y-91, La-140, Sm-153, chelant to metal 5:1) is listed as “high concentrations of radioactivity were observed in the liver, spleen, kidney, lung and bone”. The “% Complex” value ([4]; Metal/Ligand Molar Ratio 1) was 98%, the “% Complex” value [4, 12] was 86% and the “% Complex” value [4, 13] was 78%. The “% Complex” value [4, 15] was 48% and the “% Complex” value [4, 14] was 16%.

In the case of `[89Sr]` [Strontium-89], the half-life [11] is listed as 50.4 days.
